Among the data in patent publication US20250179066A1, “ZWITTERIONIC ANTIBACTERIAL COMPOUNDS” (Hoffmann-La Roche Inc., priority 2022, published 2025) are IC90 values, retold here.

Counter-ions that a name gives are not always drawn.

The subject of one experiment is Acinetobacter baumannii ATCC17961. As to the kind of experiment: Antimicrobial susceptibility testing: 90% growth inhibitory concentration (IC90) determination. Format: cell-based. The conditions noted are these: 90% growth inhibitory concentration against Acinetobacter baumannii ATCC17961, Iso-Sensitest broth, OD 600 nm over 16 h; read-out: ATCC 17961 IC90. Summed up:
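OD600 monitored each minute over 16 h at 35±2° C for bacteria (~5×10^5 CFU/mL final) in Iso-Sensitest medium with 10-point twofold compound series (e.g. 10-0.0195 μM final). Concentration giving 90% growth inhibition in log phase reported as IC90.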
Turning to `Cn1c(-c2cn(-c3ccc4c(ccn4CC(N)=O)n3)nc2C(F)(F)F)cnc1C(=O)Nc1ccc(C(=O)N2CCN(C(=O)C3CC[N+](CC(=O)O)(CC4CNC4)CC3)CC2)c(Cl)c1` (stereo not drawn) [Example 199, cis-2-[4-[4-[4-[[5-[1-[1-(2-amino-2-keto-ethyl)pyrrolo[3,2-b]pyridin-5-yl]-3-(trifluoromethyl)pyrazol-4-yl]-1-methyl-imidazole-2-carbonyl]amino]-2-chloro-benzoyl]piperazine-1-carbonyl]-1-(azetidin-3-ylmethyl)piperidin-1-ium-1-yl]acetic acid. 1:1 2,2,2-trifluoroacetate], the IC90 (usually the concentration needed for an effect of 90%) was 308 nM.

The same experiment, now with this note: Acinetobacter baumannii, ATCC17961, 16 h, 90% growth inhibitory concentration against Acinetobacter baumannii ATCC17961, Iso-Sensitest broth, OD 600 nm over 16 h; read-out: ATCC 17961 IC90.
Take `Cn1c(-c2cn(-c3cccc(N)n3)nc2C(F)(F)F)cnc1C(=O)Nc1ccc(C(=O)N2CCN(C(=O)[C@H]3CC[N@+](CC(=O)O)(CC4CNC4)CC3)CC2)c(Cl)c1` [Example 192, cis-2-[4-[4-[4-[[5-[1-(6-amino-2-pyridyl)-3-(trifluoromethyl)pyrazol-4-yl]-1-methyl-imidazole-2-carbonyl]amino]-2-chloro-benzoyl]piperazine-1-carbonyl]-1-(azetidin-3-ylmethyl)piperidin-1-ium-1-yl]acetic acid. 1:1 2,2,2-trifluoroacetate]: the IC90 worked out at 265 nM.
Same read-out and setting: next, `Cn1c(-c2cn(-c3ccc(N)cn3)nc2C(F)(F)F)cnc1C(=O)Nc1ccc(C(=O)N2CCN(C(=O)CCC[N+](C)(CCCN)CC(=O)O)CC2)c(Cl)c1` (racemic) [Example 65, rac-3-aminopropyl-[4-[4-[4-[[5-[1-(5-amino-2-pyridyl)-3-(trifluoromethyl)pyrazol-4-yl]-1-methyl-imidazole-2-carbonyl]amino]-2-chloro-benzoyl]piperazino]-4-keto-butyl]-(carboxymethyl)-methyl-ammonium. 1:1 2,2,2-trifluoroacetate]: 720 nM; `CN(C)C(=O)c1c[nH]c2cc(-n3cc(-c4cnc(C(=O)Nc5ccc(C(=O)N6CCN(C(=O)[C@H]7CC[N@+](CC(=O)O)(CC8CNC8)CC7)CC6)c(Cl)c5)n4C)c(C(F)(F)F)n3)ncc12` [Example 172, cis-2-[1-(azetidin-3-ylmethyl)-4-[4-[2-chloro-4-[[5-[1-[3-(dimethylcarbamoyl)-1H-pyrrolo[3,2-c]pyridin-6-yl]-3-(trifluoromethyl)pyrazol-4-yl]-1-methyl-imidazole-2-carbonyl]amino]benzoyl]piperazine-1-carbonyl]piperidin-1-ium-1-yl]acetic acid. 1:1 2,2,2-trifluoroacetate]: 194 nM.
On to `Cn1c(-c2cn(-c3ccc(N)cn3)nc2C(F)(F)F)cnc1C(=O)Nc1ccc(C(=O)N2CC3CC4(C(=O)C5CC[N+](CC(=O)O)(CC6CNC6)CC5)CC(C2)N34)c(Cl)c1` (stereo not shown) [Example 92, 2-[4-[3-[4-[[5-[1-(5-amino-2-pyridyl)-3-(trifluoromethyl)pyrazol-4-yl]-1-methyl-imidazole-2-carbonyl]amino]-2-chloro-benzoyl]-3,9-diazabicyclo[3.3.1]nonane-9-carbonyl]-1-(azetidin-3-ylmethyl)piperidin-1-ium-1-yl]acetic acid. 1:1 formate], for which the IC90 was 1620 nM.
The same measure, in the same setting: next, `Cn1c(-c2cn(-c3ccc(N)cn3)nc2C(F)(F)F)cnc1C(=O)Nc1ccc(C(=O)N2CCN(C(=O)CCC[N+](CC(=O)O)(CC3CNC3)CC3CNC3)CC2)c(Cl)c1` [Example 50, [4-[4-[4-[[5-[1-(5-amino-2-pyridyl)-3-(trifluoromethyl)pyrazol-4-yl]-1-methyl-imidazole-2-carbonyl]amino]-2-chloro-benzoyl]piperazino]-4-keto-butyl]-bis(azetidin-3-ylmethyl)-(carboxymethyl)ammonium. 1:1 2,2,2-trifluoroacetic acid. 1:1 2,2,2-trifluoroacetate]: 520 nM; `Cn1c(-c2cn(-c3ccc(N)cn3)nc2C(F)(F)F)cnc1C(=O)Nc1ccc(C(=O)N2C3CCC2CN(C(=O)C2CC[N+](CC(=O)O)(CC4CNC4)CC2)C3)c(Cl)c1` (stereo not shown) [Example 89, 2-[4-[8-[4-[[5-[1-(5-amino-2-pyridyl)-3-(trifluoromethyl)pyrazol-4-yl]-1-methyl-imidazole-2-carbonyl]amino]-2-chloro-benzoyl]-3,8-diazabicyclo[3.2.1]octane-3-carbonyl]-1-(azetidin-3-ylmethyl)piperidin-1-ium-1-yl]acetic acid. 1:1 formate]: 1490 nM; `Cn1c(-c2cn(-c3ccc(N)cn3)nc2C(F)(F)F)cnc1C(=O)Nc1ccc(C(=O)N2CCN(C(=O)[C@H]3CC[N@+](CCCN)(CC(=O)O)CC3)CC2)c(Cl)c1` [Example 48, trans-2-[1-(3-aminopropyl)-4-[4-[4-[[5-[1-(5-amino-2-pyridyl)-3-(trifluoromethyl)pyrazol-4-yl]-1-methyl-imidazole-2-carbonyl]amino]-2-chloro-benzoyl]piperazine-1-carbonyl]piperidin-1-ium-1-yl]acetic acid. 1:1 2,2,2-trifluoroacetate]: 510 nM.
Same read-out and setting: next, `Cn1c(-c2cn(-c3ccc(O)cc3F)nc2C(F)(F)F)cnc1C(=O)Nc1ccc(C(=O)N2CCN(C(=O)[C@H]3CC[N@+](CC(=O)O)(CC4CNC4)CC3)CC2)c(F)c1` [Example 136, cis-2-[1-(azetidin-3-ylmethyl)-4-[4-[2-fluoro-4-[[5-[1-(2-fluoro-4-hydroxy-phenyl)-3-(trifluoromethyl)pyrazol-4-yl]-1-methyl-imidazole-2-carbonyl]amino]benzoyl]piperazine-1-carbonyl]piperidin-1-ium-1-yl]acetic acid;formate]: 173 nM; `CNc1ccc(-n2cc(-c3cnc(C(=O)Nc4ccc(C(=O)N5CCN(C(=O)[C@H]6CC[N@+](CC(=O)O)(CC7CNC7)CC6)CC5)c(Cl)c4)n3C)c(C(F)(F)F)n2)nc1` [Example 29, cis-2-[1-(azetidin-3-ylmethyl)-4-[4-[2-chloro-4-[[1-methyl-5-[1-[5-(methylamino)-2-pyridyl]-3-(trifluoromethyl)pyrazol-4-yl]imidazole-2-carbonyl]amino]benzoyl]piperazine-1-carbonyl]piperidin-1-ium-1-yl]acetic acid. 1:1 2,2,2-trifluoroacetate]: 360 nM.
Still for that read-out and setting: next, `Cn1c(-c2cn(-c3ccc(N4CC[C@H](N)C4)cn3)nc2C(F)(F)F)cnc1C(=O)Nc1ccc(C(=O)N2CCN(C(=O)[C@H]3CC[N@+](CC(=O)O)(CC4CNC4)CC3)CC2)c(Cl)c1` [Example 202, cis-2-[4-[4-[4-[[5-[1-[5-[(3S)-3-aminopyrrolidin-1-yl]-2-pyridyl]-3-(trifluoromethyl)pyrazol-4-yl]-1-methyl-imidazole-2-carbonyl]amino]-2-chloro-benzoyl]piperazine-1-carbonyl]-1-(azetidin-3-ylmethyl)piperidin-1-ium-1-yl]acetic acid;formate]: 231 nM; `COCCNc1ccc(-n2cc(-c3cnc(C(=O)Nc4ccc(C(=O)N5CCN(C(=O)[C@H]6CC[N@+](CC(=O)O)(CC7CNC7)CC6)CC5)c(C)c4)n3C)c(C(F)(F)F)n2)c(F)c1` [Example 111, cis-2-[1-(azetidin-3-ylmethyl)-4-[4-[4-[[5-[1-[2-fluoro-4-(2-methoxyethylamino)phenyl]-3-(trifluoromethyl)pyrazol-4-yl]-1-methyl-imidazole-2-carbonyl]amino]-2-methyl-benzoyl]piperazine-1-carbonyl]piperidin-1-ium-1-yl]acetic acid;2,2,2-trifluoroacetate]: 185 nM; `Cc1cc(NC(=O)c2ncc(-c3cn(-c4ccc5[nH]ccc5n4)nc3C(F)(F)F)n2C)ccc1C(=O)N1CCN(C(=O)[C@H]2CC[N@+](CC(=O)O)(CC3CNC3)CC2)CC1` [Example 132, cis-2-[1-(azetidin-3-ylmethyl)-4-[4-[2-methyl-4-[[1-methyl-5-[1-(1H-pyrrolo[3,2-b]pyridin-5-yl)-3-(trifluoromethyl)pyrazol-4-yl]imidazole-2-carbonyl]amino]benzoyl]piperazine-1-carbonyl]piperidin-1-ium-1-yl]acetic acid. 1:1 2,2,2-trifluoroacetate]: 139 nM.
As to `C[C@H]1CN(C(=O)C2CC[N+](CC(=O)O)(CC3CNC3)CC2)CCN1C(=O)c1ccc(NC(=O)c2ncc(-c3cn(-c4ccc(N)cn4)nc3C(F)(F)F)n2C)cc1Cl` (stereo partly drawn) [Example 79, 2-[4-[(3S)-4-[4-[[5-[1-(5-amino-2-pyridyl)-3-(trifluoromethyl)pyrazol-4-yl]-1-methyl-imidazole-2-carbonyl]amino]-2-chloro-benzoyl]-3-methyl-piperazine-1-carbonyl]-1-(azetidin-3-ylmethyl)piperidin-1-ium-1-yl]acetic acid. 1:1 formate], the IC90 was found to be 1120 nM.
For the compound `COc1ccc(-n2cc(-c3cnc(C(=O)Nc4ccc(C(=O)N5CCN(C(=O)C6CC[N+](CC(=O)O)(CC7CNC7)CC6)CC5)c(Cl)c4)n3C)c(C(F)(F)F)n2)nc1` (stereo not shown) [Example 22, 2-[1-(azetidin-3-ylmethyl)-4-[4-[2-chloro-4-[[5-[1-(5-methoxy-2-pyridyl)-3-(trifluoromethyl)pyrazol-4-yl]-1-methyl-imidazole-2-carbonyl]amino]benzoyl]piperazine-1-carbonyl]piperidin-1-ium-1-yl]acetic acid. 1:1 formate], the IC90 turned out to be 330 nM.
Same read-out and setting: the figure for `CN(C)c1ccc(-n2cc(-c3cnc(C(=O)Nc4ccc(C(=O)N5CCN(C(=O)C6CC[N+](CC(=O)O)(CC7CNC7)CC6)CC5)c(Cl)c4)n3C)c(C(F)(F)F)n2)cc1` (stereo not shown) [Example 46, 2-[1-(azetidin-3-ylmethyl)-4-[4-[2-chloro-4-[[5-[1-[4-(dimethylamino)phenyl]-3-(trifluoromethyl)pyrazol-4-yl]-1-methyl-imidazole-2-carbonyl]amino]benzoyl]piperazine-1-carbonyl]piperidin-1-ium-1-yl]acetic acid. 1:1 formate] is 500 nM.
